Experimental data: PubChem BioAssay (NCI)
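Where inhibition never reached the appropriate level, the endpoint shown equals the highest concentration tested. Otherwise, values were interpolated linearly from a five-concentration, 48-hour dose response in 96-well plates. Abbreviation: GI50, concentration required for 50% inhibition of growth. At the TGI there is no net growth.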

What was measured:
Test in all cases: NCI tumour cell line growth inhibition, 48 h
[1] = tested on: 786-0 renal
[2] = tested on: A498 renal
[3] = tested on: A549 NSCLC
[4] = tested on: ACHN renal
[5] = tested on: BT-549 breast
[6] = tested on: CAKI-1 renal
[7] = tested on: CCRF-CEM leukemia
[8] = tested on: COLO 205 colon
[9] = tested on: DU-145 prostate
[10] = tested on: EKVX NSCLC
[11] = tested on: HCC-2998 colon
[12] = tested on: HCT-116 colon
[13] = tested on: HCT-15 colon
[14] = tested on: HOP-62 NSCLC
[15] = tested on: HOP-92 NSCLC
[16] = tested on: HS 578T breast
[17] = tested on: HT29 colon
[18] = tested on: IGROV1 ovarian
[19] = tested on: KM12 colon
[20] = tested on: LOX IMVI melanoma
[21] = tested on: M14 melanoma
[22] = tested on: MALME-3M melanoma
[23] = tested on: MCF7 breast
[24] = tested on: MDA-MB-231 breast
[25] = tested on: MDA-MB-435
[26] = tested on: MDA-MB-468 breast
[27] = tested on: MOLT-4 leukemia
[28] = tested on: NCI-H226 lung
[29] = tested on: NCI-H23 lung
[30] = tested on: NCI-H460 lung
[31] = tested on: NCI-H522 lung
[32] = tested on: NCI/ADR-RES ovarian
[33] = tested on: OVCAR-3 ovarian
[34] = tested on: OVCAR-4 ovarian
[35] = tested on: OVCAR-5 ovarian
[36] = tested on: OVCAR-8 ovarian
[37] = tested on: PC-3 prostate
[38] = tested on: RPMI-8226 leukemia
[39] = tested on: RXF 393 renal
[40] = tested on: SF-268 CNS
[41] = tested on: SF-295 CNS
[42] = tested on: SF-539 CNS
[43] = tested on: SK-MEL-2 melanoma
[44] = tested on: SK-MEL-28 melanoma
[45] = tested on: SK-MEL-5 melanoma
[46] = tested on: SK-OV-3 ovarian
[47] = tested on: SN12C renal
[48] = tested on: SNB-19 CNS
[49] = tested on: SNB-75 CNS
[50] = tested on: SR leukemia
[51] = tested on: SW-620 colon
[52] = tested on: T-47D breast
[53] = tested on: TK-10 renal
[54] = tested on: U251 CNS
[55] = tested on: UACC-257 melanoma
[56] = tested on: UACC-62 melanoma
[57] = tested on: UO-31 renal

Cn1cc(-c2cc(N)n3nc(-c4c[nH]c5ccccc45)cc3n2)c2cc(F)ccc21
GI50 [1]: 1.49 µM | TGI [1]: 2.95 µM | GI50 [2]: 11.6 µM | TGI [2]: 26.6 µM | GI50 [3]: 2.84 µM | TGI [3]: 11.1 µM | GI50 [4]: 2.07 µM | TGI [4]: 4.81 µM | GI50 [5]: 17.6 µM | TGI [5]: 34.2 µM | GI50 [6]: 1.97 µM | TGI [6]: 4.73 µM | GI50 [7]: 2.23 µM | TGI [7]: 5.75 µM | GI50 [8]: 2.17 µM | TGI [8]: 4.33 µM | GI50 [9]: 3.7 µM | TGI [9]: 13.3 µM | GI50 [10]: 1.99 µM | TGI [10]: 4.86 µM | GI50 [11]: 1.69 µM | TGI [11]: 3.18 µM | GI50 [12]: 1.71 µM | TGI [12]: 3.24 µM | GI50 [13]: 1.79 µM | TGI [13]: 3.78 µM | GI50 [14]: 2.83 µM | TGI [14]: 13.9 µM | GI50 [15]: 2.06 µM | TGI [15]: 4.46 µM | GI50 [16]: 3.91 µM | TGI [16]: 21.7 µM | GI50 [17]: 1.89 µM | TGI [17]: 3.96 µM | GI50 [18]: 2.18 µM | TGI [18]: 5.61 µM | GI50 [19]: 2.12 µM | TGI [19]: 4.64 µM | GI50 [20]: 1.74 µM | TGI [20]: 3.11 µM | GI50 [21]: 1.86 µM | TGI [21]: 3.98 µM | GI50 [22]: 1.75 µM | TGI [22]: 3.18 µM | GI50 [23]: 1.95 µM | TGI [23]: 4.34 µM | GI50 [24]: 1.98 µM | TGI [24]: 3.63 µM | GI50 [25]: 1.93 µM | TGI [25]: 4.01 µM | GI50 [26]: 1.52 µM | TGI [26]: 2.97 µM | GI50 [27]: 2.32 µM | TGI [27]: 6.32 µM | GI50 [28]: 10.7 µM | TGI [28]: 45.2 µM | GI50 [29]: 1.91 µM | TGI [29]: 4.22 µM | GI50 [30]: 2.2 µM | TGI [30]: 4.99 µM | GI50 [31]: 1.78 µM | TGI [31]: 3.62 µM | GI50 [32]: 2.35 µM | TGI [32]: 6.35 µM | GI50 [33]: 2.3 µM | TGI [33]: 4.68 µM | GI50 [34]: 2.76 µM | TGI [34]: 8.16 µM | GI50 [35]: 1.97 µM | TGI [35]: 4.27 µM | GI50 [36]: 3.35 µM | TGI [36]: > 100 µM | GI50 [37]: 2.48 µM | TGI [37]: 9.08 µM | GI50 [38]: 2.48 µM | TGI [38]: 6.22 µM | GI50 [39]: 1.9 µM | TGI [39]: 4.19 µM | GI50 [40]: 2.6 µM | TGI [40]: 8.08 µM | GI50 [41]: 1.71 µM | TGI [41]: 3.39 µM | GI50 [42]: 1.63 µM | TGI [42]: 3.01 µM | GI50 [43]: 2.06 µM | TGI [43]: 4.91 µM | GI50 [44]: 1.7 µM | TGI [44]: 3.13 µM | GI50 [45]: 1.85 µM | TGI [45]: 3.73 µM | GI50 [46]: 6.82 µM | TGI [46]: 23.6 µM | GI50 [47]: 2.44 µM | TGI [47]: 7.03 µM | GI50 [48]: 2.38 µM | TGI [48]: 6.25 µM | GI50 [49]: 5.15 µM | TGI [49]: 20.3 µM | GI50 [50]: 2.01 µM | TGI [50]: > 100 µM | GI50 [51]: 1.95 µM | TGI [51]: 4 µM | GI50 [52]: 2.05 µM | TGI [52]: 4.92 µM | GI50 [53]: 2.02 µM | TGI [53]: 7.64 µM | GI50 [54]: 1.97 µM | TGI [54]: 4.09 µM | GI50 [55]: 1.9 µM | TGI [55]: 3.85 µM | GI50 [56]: 1.71 µM | TGI [56]: 3.19 µM | GI50 [57]: 1.71 µM | TGI [57]: 3.65 µM
